For data set [1], the system named is human hepatocyte engraftment. The data set can be described thus: Human hepatocyte engraftment in AP20187-treated AFC8/DKO mice (human albumin ELISA). Format: in vivo, mouse. The procedure: (§1) FIG. 9. […] AFC8/DKO transgenic mice were treated with AP20187 (5 μg/g). A. Plasma ALT levels were measured at 24 hr and 72 hr (and 3-6 days, not shown) post treatment. […] Two non-TG DKO mice were used as controls (dashed line, background). B. Livers were harvested at 24 h after the 2nd injection and H&E stained. […] V, vein. C. […] AFC8/DKO or DKO mice were treated with AP20187 (5 μg/g) one hour prior to intra-splenic injection of human hepatocytes (2×10e6/mouse). Sera were collected at 80 days post transfer and human albumin levels were determined by ELISA. […] AFC8/DKO transgenic mice were treated with AP20187 (5 μg/g). Plasma ALT levels were measured at 24 hr and 72 hr (and 3-6 days, not shown) post treatment (FIG. 9A). […] Two non-TG DKO mice were used as controls (dashed line, background). Livers were harvested at 24 h after the 2nd injection and H&E stained (FIG. 9B). […] V, vein. […] AFC8/DKO or DKO mice were treated with AP20187 (5 μg/g) one hour prior to intra-splenic injection of human hepatocytes (2×10e6/mouse). Sera were collected at 80 days post transfer and human albumin levels were determined by ELISA.

In data set [2] the test system is HepG2 cells. The data set can be described thus: Hepatocyte-specific apoptosis with Alb-FKBP-Casp8 in HepG2 cells (7AAD FACS). The data set is classed as cell-based. The settings on record: AP20187 2 nM, 24 hours. The text has this: (§2) FIG. 5. Generation of Alb-FKBP-Casp8 transgenic DKO (AFC8/DKO) mice. (A) The Alb-FKBP-Casp8 transgene structure and AFC8/DKO-hu HSC/Hep mice: the FKBP2Casp8 fusion gene was cloned into the liver specific transgenic construct with the Albumin promoter (see Heckel et al. 1990. Neonatal bleeding in transgenic mice expressing urokinase-type plasminogen activator. Cell 62:447-56). (B) Hepatocyte-specific apoptosis with expression from the albumin promoter/enhancer. […] As described in FIG. 6B, the FKBP-Casp8 gene controlled by CMV enhancer or the hepatocyte-specific albumin promoter was co-transfected with GFP-expressing plasmid in 293T and HepG2 cells. Transfected cells were cultured for 30 hours and AP20187 dimerizer (2 nM) was added to the culture medium. The cells were then cultured for 24 hours, harvested, stained with 7AAD, and analyzed for GFP and 7AAD. GFP+ cells were analyzed for 7AAD uptake (dead cells). (C) Generation of Alb-FKBP-Casp8/DKO transgenic mice. Standard transgenic mouse procedure was used to inject the transgene construct into fertilized DKO embryos. In the initial screening of 11 mice from two injections, one transgenic founder was identified. […]

The test system of data set [3] is FKBP-Casp8. The settings on record: 0.25, 1, 4 and 10 mg/kg, peritoneal; cited from earlier work.
Data set [4] relates to murine hepatocytes. Put plainly: Dimer injection in AFC8/DKO transgenic mice: mouse liver damage (plasma ALT, H&E). Format: in vivo. The procedure:
as §1

Data set [5] concerns 293T cells transfected with FKBP-Caspase 8. The data set can be described thus: Inducible cell killing in 293T cells co-transfected with eGFP and CMV-promoter driven FKBP-Casp8 (7AAD FACS). Format: cell-based. The text has this: FIG. 4. Generation of the FKBP-Casp8 fusion gene with inducible cell killing activity. (A) Inducible activation of Caspase 8 through dimerization. The chemical dimerizer AP20187 causes dimerization/activation of Caspase 8 through interaction of adjacent FKBP binding sites. M, myristoylation signal; FKBP, FK506 binding domain; caspase, human activated caspase 8 (fragment Ser217-Aps479. ref) was cloned into the pC4M-Fv2E vector (Ariad Pharmaceuticals) to express the FKBP2-Casp8 fusion protein whose activation is induced by dimerization with AP20187. (B-C) Dose-dependent induction of apoptosis in cells transfected with FKBP-Caspase 8. 293T cells were co-transfected with plasmids expressing eGFP alone, or with CMV-promoter driven FKBP-Casp8. Transfected cells were cultured for 30 hours and then various amounts of AP20187 dimerizer was added. The cells were then cultured for 24 hours, harvested, stained with 7AAD, and analyzed by FACS for GFP and 7AAD. (B) GFP+ (transfected) cells were gated and the percentage of dead cells (7AAD+) was analyzed. (C) GFP− (untransfected bystander) cells were similarly analyzed. At least 3 independent experiments are repeated.
The FKBP-Caspase8 fusion gene with inducible cell killing activity was constructed (FIG. 4; and Chang et al. 2003. Activation of procaspases by FK506 binding protein-mediated oligomerization. Sci STKE 2003:PL1). […] Therefore, FKBP-Casp8 activation by AP20187 kills target cells expressing the gene but not bystander cells, an important point for depleting specific target cells in vivo.

Data set [6] has as its system 293T cells. Put plainly: Hepatocyte-specific apoptosis with Alb-FKBP-Casp8 in 293T cells (7AAD FACS). Format: cell-based. The settings on record: AP20187 2 nM, 24 hours.
From the text: as §2

Data set [7] relates to Ova-specific human IgG. Put plainly: Immunization of DKO-hu HSC mice, Ova-specific human IgG induction. Format: in vivo. Particulars: DKO-hu HSC mouse. The text has this: FIG. 8. Antigen-Fc fusion proteins give enhanced antigen-specific IgG induction in vivo.
Human IgG+ B cells were increased by activating human T cells in the spleen in vitro with anti-CD3/CD28 mAb (FIG. 7). […] Ova-specific human IgG induction is enhanced by using the fusion protein between the same chicken ovalbumin protein with the Fc domain of human IgG (FIG. 8).

Data set [8] concerns human T and B cells. The data set can be described thus: Ova vaccination of DKO-hu mice, Ova-specific T and B cell responses. Format: in vivo, mouse. The settings on record: 3 weeks post vaccination. The procedure:
FIG. 1. Long-term, stable human hemato-lymphopoiesis in HSC-DKO Mice. Human fetal liver CD34+ cells were injected intra-hepatically in newborn (1-3 days old) DKO mice. At 12-50 weeks post transplant, the human CD45^+, murine CD45^− cells in PBMC, lymph node (LN), spleen, bone marrow and thymus were analyzed by multi-color FACS. A: Human CD45 reconstitution (12-16 weeks old) in 5 cohorts of DKO-hu HSC mice from 5 independent donor fetal livers. Shown is average % human CD45+ cells in PB of reconstituted DKO-hu HSC mice. Error bars indicate standard errors of each cohort (n=numbers of mice/cohort). B: Human cells reconstitution in PBMC of the transplanted mice. […] Human T cells from a DKO-hu mouse at 50 weeks are analyzed for expression of CD45RO and CD69. […] Human T proliferation is measured by 3-H thymidine incorporation for 16 hr after 3 days post co-culture. […] H: DKO-hu mice are vaccinated with Ova protein and Ova-specific T cell recall response is measured at 3 weeks post vaccination. […] Human T cell proliferation is measured as above.
Human T cells are negatively selected by both mouse MHC/APC and human MHC/APC because both human and mouse antigen presenting cells (APC) are detected in the mouse thymus (see Traggiai et al. 2004. Development of a human adaptive immune system in cord blood cell-transplanted mice. Science 304:104-7). […]

Setting [9] is: various amounts of AP20187, 24 hours.

For `CC[C@H](C(=O)N1CCCC[C@H]1C(=O)O[C@H](CCc1ccc(OC)c(OC)c1)c1cccc(OCC(=O)NCC(CNC(=O)COc2cccc([C@@H](CCc3ccc(OC)c(OC)c3)OC(=O)[C@@H]3CCCCN3C(=O)[C@@H](CC)c3cc(OC)c(OC)c(OC)c3)c2)CN(C)C)c1)c1cc(OC)c(OC)c(OC)c1` [AP20187], the “human albumin levels in sera (ELISA)” value in data set [1] (5 μg/g one hour prior to intra-splenic human hepatocytes, 80 days post transfer) is given as “Enhanced human albumin levels”. Also, in data set [1] (dimer injection in AFC8/DKO mice), the “enhanced human hepatocyte engraftment” value is reported as 50-100 ×. The “enhanced human hepatocyte engraftment” value in data set [1] (one injection of dimerizers) is 100 ×. Further, the “cell killing (7AAD uptake of GFP+ cells) with Alb-FKBP-Casp8” value in data set [2] was “functions in HepG2”. In data set [3], the “inducing Caspase8 activation and target cell depletion” value is reported as “effective”; the toxicity in mice result was “No toxicity is observed”. For the same molecule, the “liver H&E staining” value in data set [4] (24 h after the 2nd injection, TG livers) was “Accumulation of fat droplets”. Also, the mouse liver damage result in data set [4] (AFC8/DKO mice, 5 μg/g) is given as “transient mouse liver damage”. Also, the “plasma ALT levels” value in data set [4] (second injection 6 days after 1st injection, 5 μg/g) is “elevated ALT levels”. Further, the “effect on cells transfected with only GFP expressing gene” value in data set [5] is listed as “no detectable effect”. Besides, in data set [5] (setting [9]), the “death of GFP+/FKBP-Casp8+ (transfected) cells, 7AAD+” value is given as “led to death of GFP+/FKBP-Casp8+ cells” and the “death of GFP− (untransfected bystander) cells” value is “not GFP− bystander cells”. Moreover, in data set [6], the “cell killing (7AAD uptake of GFP+ cells) with Alb-FKBP-Casp8” value is listed as “not 293T cells”.

B1: chicken ovalbumin protein: chicken ovalbumin protein used as immunization antigen (protein, UniProt P01012 2-386, looked up)
Ovalbumin: GSIGAASMEFCFDVFKELKVHHANENIFYCPIAIMSALAMVYLGAKDSTRTQINKVVRFDKLPGFGDSIEAQCGTSVNVHSSLRDILNQITKPNDVYSFSLASRLYAEERYPILPEYLQCVKELYRGGLEPINFQTAADQARELINSWVESQTNGIIRNVLQPSSVDSQTAMVLVNAIVFKGLWEKAFKDEDTQAMPFRVTEQESKPVQMMYQIGLFRVASMASEKMKILELPFASGTMSMLVLLPDEVSGLEQLESIINFEKLTEWTSSNVMEERKIKVYLPRMKMEEKYNLTSVLMAMGITDVFSSSANLSGISSAESLKISQAVHAAHAEINEAGREVVGSAEAGVDAASVSEEFRADHPFLFCIKHIATNAVLFFGRCVSP
Regarding B1, in data set [7], the “Ova-specific human IgG” value was “very low levels”. The “Ova-specific human T and B cell responses” value in data set [8] is “induces Ova-specific human T and B cell responses”.

(Values after patent US9173383B2, “Recombinant non-human mammalian model for hepatitis infection and immunopathogenesis” (The University of North Carolina at Chapel Hill, priority 2008, dated 2015).)
